In US20110281956A1, “USE OF THYMUS CAPITATUS EXTRACT, SATUREJA HORTENSIS EXTRACT, OR CARVACROL FOR TREATING METABOLIC DISEASES” (INDUSTRY-ACADEMIC COOPERATION FOUNDATION, YONSEI UNIVERSITY, priority 2009, published 2011):
“Also recorded” adds a separate entry of the source. Marks after values point to notes of the source that are not given here.

What was measured:
[1] = system: preadipocytes 3T3-L1; experiment: Adipocyte differentiation inhibition, Oil Red O staining; assay type: cell-based, mouse; conditions: 14 days
Experimental: The effect of carvacrol […] on adipocyte differentiation and growth was investigated using mouse adipocytes (3T3-L1). Preadipocytes 3T3L1 were placed on a 12-well plate and cultured to confluency in a 5% CO2 incubator at 37° C. using DMEM containing 1% penicillin-streptomycin, 1% non-essential amino acids and 10% fetal bovine serum (FBS). The cultured 3T3-L1 cells were differentiated into adipocytes by culturing for 2 days in a medium containing 0.5 mM methylisobutylxanthine/1 μM dexamethasone/1 μg/mL insulin (DMI). The cells were differentiated into mature adipocytes by further culturing for 2 days in DMEM containing 1 μg/mL insulin. Subsequently, they were further cultured for 10 days while changing DMEM every other day to obtain fully differentiated adipocytes.
Starting from the day when DMI was added to the 3T3-L1 cells, carvacrol was treated at concentrations of 0.1, 1, 10, 50 and 100 μM every other day. Carvacrol was purchased from Sigma and used after dissolving in DMSO. For negative control, only DMSO was used. After the culturing for a total of 14 days, when the cells were fully differentiated, the medium was removed and the fats contained in the differentiated adipocytes were stained. […]
To measure the triglyceride level of the differentiated 3T3-L1 cells, the stained cells were dissolved in 1 mL of isobutanol and OD value was measured at 600 nm.

[2] = system: C57BL/6J mice on high-fat diet; experiment: Carvacrol-containing high-fat diet fed to mice for 10 weeks: abdominal fat, blood lipids, glucose, insulin, liver lipids; assay type: in vivo, mouse
Experimental: High-fat diet (HFD: 40% fat calorie, 17 g lard+3% corn oil/100 g diet) was used to induce obesity. Carvacrol-containing diet had the same composition as the HFD except for containing 0.1% carvacrol. Normal diet (ND) was prepared according to AIN-76 rodent diet (see Table 1).
5-week-old male C57BL/6J mice were accustomed to the laboratory environment for a week while feeding solid feed. They were randomly divided into the ND, HFD and carvacrol groups according to the randomized block design and reared for 10 weeks. Diet was provided between 10 and 11 a.m. every day along with water. Food intake was measured every day, and body weight was measured every 3 days. In order to avoid transient body weight increase due to feed intake, body weight was measured 2 hours after removing the feedbox.
After fasting the test animal for at least 12 hours and anesthetizing with diethyl ether, blood, liver and abdominal fat tissue (epididymal, perirenal, mesenteric and retroperitoneal fat) were taken and weighed after washing with 0.1 M PBS (pH 7.4). The blood taken from the abdominal aorta was centrifuged at 1000×g for 15 minutes to isolate the serum.
Total cholesterol level, triglyceride level, glucose level and insulin level in plasma and lipid components in liver tissue were measured as follows. Total cholesterol level, triglyceride level and glucose level in plasma were measured 2 times using a commercially available kit (Bio Clinical System), and insulin level was measured by ELISA using a mouse Insulin kit (Shibayali, Japan). Lipid components were extracted from liver tissue according to Folch et al.'s method (Folch J, Lees M, Sloane Stanley G H. A simple method for the isolation and purification of total lipids from animal tissues. J. Biol. Chem. 1957; 226: 497-509) as follows. After adding 1 mL of distilled water to 0.25 g of liver tissue, the liver tissue was homogenized using a Polytron homogenizer (IKA-WERKE GmbH & Co., Ultra-Turrax, Staufen, Germany). After adding 5 mL of a chloroform/methanol mixture solution (2:1, v/v) to the homogenate and mixing well, centrifugation was performed at 1000×g for 10 minutes. Then, after separating the pellets and adding 2 mL of the chloroform/methanol mixture solution (2: 1, v/v) again to the supernatant, the same procedure was repeated to completely isolate the lipid components. After adding 3 mL of a chloroform/methanol/0.05% CaCl2 mixture solution (3:48:47, v/v/v) to thus obtained pellets and mixing for 1 minute, centrifugation was performed at 1000×g for 10 minutes. Finally, the resulting pellets were completely dried using nitrogen gas and the dried lipids were dissolved in 1 mL of methanol for analysis of the lipid components. Triglyceride level of the liver tissue was measured as in the plasma analysis using the same commercially available kit (Bio Clinical System).
In Table 2, the characters a, b and c indicate significance according to one-way ANOVA and Duncan's multiple range test (p<0.001). The atherogenic index was calculated by (total cholesterol−HDL cholesterol)/HDL cholesterol, and the insulin resistance index was calculated by 10^−3 pmol insulin×mmol glucose×L^−2.

[3] = system: leiomyosarcoma cells isolated from rats cancer-induced with 3,4-benzopyrene; conditions: carvacrol at 67 μM for 24 hours or at 90 μM for 48 hours; cited from earlier work
[4] = 0.1% carvacrol in high-fat diet
[5] = 0.1% carvacrol in high-fat diet, FIG. 2
[6] = blood (plasma), 0.1% carvacrol in high-fat diet
[7] = liver tissue, 0.1% carvacrol in high-fat diet

With `Cc1ccc(C(C)C)cc1O` [Carvacrol, carvacrol] the “fats stained with Oil Red O, OD value at 600 nm (cellular fat content)” value ([1]; 0.1-100 μM, FIG. 1B) was “decreased the cellular fat content in a concentration-dependent manner; also recorded: decrease in OD value in a concentration-dependent manner”, the “concentrations at which differentiation of the preadipocytes 3T3-L1 was decreased” value ([1]; concentration-dependent, 0.1, 1, 10, 50 and 100 μM every other day, FIG. 1A) was at least 10 µM and the Liver weight [2, 4] was 4.1 ± 0.1^b g/100 g body wt. For the same compound, the “decrease in LDL+VLDL cholesterol level in plasma (serum) vs HFD” value [2, 4] was 46%, the “decrease in atherogenic index vs HFD” value [2, 4] was 44% and the “decrease in cholesterol level in liver tissue vs HFD” value [2, 4] was 42%. The “decrease in free fatty acid level in liver tissue vs HFD” value [2, 4] was 58%, the “decrease in free fatty acid level in plasma (serum) vs HFD” value [2, 4] was 80% and the “decrease in liver weight (liver-to-body weight ratio) vs HFD” value [2, 4] was 25%. For the same compound, the “decrease in total cholesterol level in plasma (serum) vs HFD” value [2, 4] was 29%, the “decrease in triglyceride level in liver tissue vs HFD” value [2, 4] was 48% and the “decrease in triglyceride level in plasma (serum) vs HFD” value [2, 4] was 30%. For the same compound, the “fasting blood sugar as compared to the HFD group” value [2, 4] was “significant decrease”, the “insulin level as compared to the HFD group” value [2, 4] was “significant decrease” and the “insulin resistance index as compared to the HFD group” value [2, 4] was “significant decrease”. For the same compound, the “decrease in epididymal fat weight vs HFD” value [2, 5] was 31%, the “decrease in mesenteric fat weight vs HFD” value [2, 5] was 51% and the “decrease in perirenal fat weight vs HFD” value [2, 5] was 54%. The “decrease in retroperitoneal fat weight vs HFD” value [2, 5] was 23%, the “decrease in total abdominal fat weight vs HFD” value [2, 5] was 36% and the Insulin resistance index ([2]; 10^−3 pmol insulin×mmol glucose×L^−2, 0.1% carvacrol in high-fat diet) was 0.68 ± 0.08^b. The Atherogenic index ([2]; (total cholesterol−HDL cholesterol)/HDL cholesterol, 0.1% carvacrol in high-fat diet) was 0.57 ± 0.18^b, the Insulin ([2]; ELISA, 0.1% carvacrol in high-fat diet) was 0.58 ± 0.06^b ng/mL and the Free fatty acid [2, 6] was 280 ± 35^c uEq/L. For the same compound, the HDL cholesterol [2, 6] was 1.68 ± 0.16^ab mmol/L, the “LDL + VLDL cholesterol” value [2, 6] was 1.11 ± 0.05^b mmol/L and the Total cholesterol [2, 6] was 2.73 ± 0.30^b mmol/L. The Triglyceride [2, 6] was 0.98 ± 0.14^b mmol/L, the Glucose ([2]; fasting, blood (plasma), 0.1% carvacrol in high-fat diet) was 6.83 ± 0.31^b mmol/L and the Cholesterol [2, 7] was 45.4 ± 5.5^b μmol/g. For the same compound, the Free fatty acid [2, 7] was 10.3 ± 0.73^b uEq/g, the Triglyceride [2, 7] was 22.0 ± 6.0^b μmol/g and the “production of the final product of platelet aggregation thromboxane B2” value [3] was “decreased”. The “proliferation of cancer cells” value [3] was “inhibited”.
